# Experimental data taken from US20090060851A1, “USE OF IDEBENONE FOR THE PREPARATION OF A TOPICALLY-APPLIED DEPIGMENTATION COMPOSITION AND CORRESPONDING COMPOSITION” (priority 2005, published 2009).
# Tests used:
# [1] = Idebenone dosing in skin cuts by gas chromatography (penetration); assay type: in vivo, mice; conditions: mouse skin, topical cream
# Procedure: Creams containing 5% and 2.5% w/w idebenone (IDB) in a neutral phase were prepared. Said creams and a cream having an identical formulation but without idebenone were applied on nude adult mice with 3 months of age. The cream with idebenone was applied on the right half of the body of the animals and the control cream on the left half according to the scheme detailed below. The animals were sacrificed 1, 2, 3 or 4 hours after applying the cream (p.a.). • Batch A: animal treated with 5% IDB (1 hour p.a.) • Batch B: animal treated with 2.5% IDB (1 hour p.a.) • Batch C: animal treated with 5% IDB (2 hours p.a.) • Batch D: animal treated with 2.5% IDB (2 hours p.a.) • Batch E: animal treated with 5% IDB (3 hours p.a.) • Batch F: animal treated with 2.5% IDB (3 hours p.a.) • Batch G: animal treated with 5% IDB (4 hours p.a.) • Batch H: animal treated with 2.5% IDB (4 hours p.a.) […]
# Idebenone dosing by gas chromatography: The treated and control skin sections were placed epidermis side down on a cryostat stage and 300 micron thick sections parallel to the surface were obtained in such a manner so as to obtain a deep cut, a surface cut and a medium cut. […] Each extract was analyzed by gas chromatography using a Hewlett Packard 5890 gas chromatograph, using a capillary column with methyl silicone as stationary phase (HP-IMS, 25 m×0.2 mm, 0.33μ thick film). […]
# [2] = system: skin of nude adult mice; test: Epidermal and dermal morphometry, mouse skin; assay type: in vivo
# Procedure: (§1) Creams containing 5% and 2.5% w/w idebenone (IDB) in a neutral phase were prepared. Said creams and a cream having an identical formulation but without idebenone were applied on nude adult mice with 3 months of age. The cream with idebenone was applied on the right half of the body of the animals and the control cream on the left half according to the scheme detailed below. The animals were sacrificed 1, 2, 3 or 4 hours after applying the cream (p.a.). • Batch A: animal treated with 5% IDB (1 hour p.a.) • Batch B: animal treated with 2.5% IDB (1 hour p.a.) • Batch C: animal treated with 5% IDB (2 hours p.a.) • Batch D: animal treated with 2.5% IDB (2 hours p.a.) • Batch E: animal treated with 5% IDB (3 hours p.a.) • Batch F: animal treated with 2.5% IDB (3 hours p.a.) • Batch G: animal treated with 5% IDB (4 hours p.a.) • Batch H: animal treated with 2.5% IDB (4 hours p.a.)
# (§2) Morphological and morphometric studies: Thickness of the epidermis, the horny layer, the papillary dermis and reticular dermis was measured in at least 10 different points, the result being expressed as the average of the 10 measurements. Capillary vessel diameter was also measured in at least 10 points, expressing them by means of their average. The measurements were carried out using a Quantimet 500+ (Leica) image processing equipment. […]
# [3] = system: SK-MEL-28; test: Cytopathic effects on cell cultures, inverted microscope; assay type: cell-based, human
# Procedure: An experiment similar to the one described in the previous example was designed for the purpose of establishing whether idebenone inhibits melanogenesis in cells in culture, but in this case the cells were treated for only 1 day, whereas the results were evaluated on the third day.
# An experiment similar to the one described in the previous example was designed for the purpose of establishing whether idebenone inhibits melanogenesis in cells in culture, but in this case the cells were treated for 2 days and the results were evaluated on the fourth day.
# An experiment similar to the one described in the previous example was designed for the purpose of establishing whether idebenone inhibits melanogenesis in cells in culture, but in this case the cells were treated for 5 days and the results were evaluated on the fifth day.
# [4] = system: skin of nude adult mice; test: Dermal capillary vessel diameters, mouse skin; assay type: in vivo; conditions: topically applied
# Procedure: as §1, §2
# [5] = Arzneim. Forsch/drug res. 35 (II), 11, pp. 1704, 1985; cited from earlier work
smiles,measurement,setting,value
"COC1=C(OC)C(=O)C(CCCCCCCCCCO)=C(C)C1=O [idebenone, 6-(10-hydroxydecyl)-2,3-dimethoxy-5-methyl-1,4-benzoquinone]",Penetration of IDB in the skin,[1],penetrates the skin and is retained up to two hours after its application in the most superficial sections
same,Thicknesses of the papillary dermis and the reticular dermis,"[2]; nude mice skin, 5% and 2.5% IDB creams versus control",did not significantly vary
same,Effect on epidermal thickness,"[2]; nude mice, topically applied",does not substantially modify epidermal thickness
same,Cytopathic effects,"[3]; remaining dilutions (−2 to −6), treated 1 day",no cytopathic effect whatsoever
same,Cytopathic effects,"[3]; −1 dilution, treated 1 day",cytopathic effects
same,Cytopathic effects,"[3]; −4, −5 and −6 dilutions, Example 8",No cytopathic effect was observed
same,Cytopathic effects,"[3]; −4, −5 and −6 dilutions, treated 2 days",No cytopathic effect was observed
same,Effect on microcirculation vascular diameters,[4],does not substantially modify microcirculation vascular diameters
same,Toxic effects reported,[5],no significant toxic effects have been reported
